Reference: patent publication US20250074981A1, “COMBINATION THERAPY WITH DEXAMETHASONE AND TUMOR-SPECIFIC T CELL ENGAGING MULTI-SPECIFIC ANTIBODIES FOR TREATING CANCER” (MEMORIAL SLOAN-KETTERING CANCER CENTER, priority 2021, published 2025)
Where two headings read alike, the source gives them in different places.

Columns and labels:
M37 breast cancer PDX = assay: In vivo anti-tumor effect in M37 breast cancer PDX; parameters: species or system mice; conditions: low and intermediate dosage of dexamethasone; due to diarrhea from C. difficile infection
Method: Increasing dosage of dexamethasone was tested as a premedication administered i.p. before the i.v. injection of HER2×CD3-BsAb plus activated human T cells in mice xenografted s.c. with M37 breast cancer PDX using the schedule detailed in FIG. 9A. The three dosages of intraperitoneal dexamethasone were 2 mg/kg (Dex 2), 8 mg/kg (Dex 8) and 32 mg/kg (Dex 32) once a week×3 weeks.

GD2(+) osteosarcoma PDX = assay: Bioluminescence imaging of Luc(+) GD2-EATs in GD2(+) osteosarcoma PDX; format: in vivo, mice; conditions: GD2-EATs plus HD dexamethasone
Method: (§1) T cells isolated from peripheral blood were stimulated with Dynabeads™ Human T-Activator CD3/CD28 for 24 hours. T cells were transduced with retroviral constructs containing tdTomato and click beetle red luciferase in RetroNectin-coated 6-well plates in the presence of IL-2 (100 IU/ml) and protamine sulfate ([…]). Transduced T cells were cultured for 8 days before being used in animal experiments.
(§2) Mice were anesthetized and imaged after intravenous injection of 3 mg of D-luciferin (Gold Biotechnology, St. Louis, MO) on different days post T cell injection. Images were acquired using IVIS Spectrum CT In Vivo Imaging System (Caliper Life Sciences, Waltham, MA). Bioluminescence images were overlaid with photographs, and regions of interest (ROI) were drawn based on the location and contour of tumor using Living image 2.60 (Xenogen, Alameda, CA). The total counts of photons (photon/s) were obtained. Bioluminescence signals (total flux, photon/s) before T cell injection were used as baselines.

[1] = system: neuroblastoma patient-derived xenografts; assay: IHC positive pixel count analysis of CD3, CD4, CD8 T cells in neuroblastoma PDXs; format: in vivo, mice; conditions: day 10 post-treatment; added to GD2-EATs
Method: (§3) Immunohistochemistry and immunofluorescence staining. Immunohistochemistry (TIC) staining were performed at the MSK Molecular Cytology Core Facility using Discovery XT processor (Ventana Medical Systems). Tumor samples were fixed and embedded in paraffin. Anti-human CD45, anti-human CD3, anti-human CD4, anti-human CD8, anti-mouse CD31 antibodies were used, which was followed by biotinylated secondary antibody. The detection was performed using a DAB detection kit (Ventana Medical Systems) or Alexa Fluor™ 488 or 568 Tyramide Reagent (Invitrogen). IHC images were captured from tumor sections using a Nikon ECLIPSE Ni-U microscope and NIS-Elements 4.0 imaging software. Antigen positive cells were counted with Qupath 0.1.2 or using positive pixel count analysis.
(§4) Positive Pixel Count Analysis. IHC slides were scanned (Aperio ScanScope XT) and analyzed by comparing positive pixel counts (Aperio Technologies). For analyzing tumor infiltrating lymphocytes, the largest area of intact tumor tissue was included, and oblique sections were avoided. Each slide was visually inspected to ensure specificity and sensitivity of antibody staining. After positive pixel count analysis was run, analyzed slides were examined to confirm that positively identified pixels were consistent with lymphocyte staining and not background staining. Percentages were calculated as the total number of positive pixels divided by the total number of pixels (% positive pixels/total pixels).

GD2(+) neuroblastoma PDX = assay: Bioluminescence imaging of Luc(+) GD2-EATs in GD2(+) neuroblastoma PDX; format: in vivo, mice
Method: (§5) T cell transduction. T cells isolated from peripheral blood were stimulated with Dynabeads™ Human T-Activator CD3/CD28 for 24 hours. T cells were transduced with retroviral constructs containing tdTomato and click beetle red luciferase in RetroNectin-coated 6-well plates in the presence of IL-2 (100 IU/ml) and protamine sulfate (4 μg/mL). Transduced T cells were cultured for 8 days before being used in animal experiments.
as §2, with “Bioluminescence imaging. Mice” for “Mice”, “Biotechnology)” for “Biotechnology, St. Louis, MO)”, “vivo” for “Vivo”, “Sciences).” for “Sciences, Waltham, MA).”, “(Xenogen).” for “(Xenogen, Alameda, CA).”

neuroblastoma PDXs = assay: Flow cytometry of tumor infiltrating myeloid cells and lymphocytes in neuroblastoma PDXs; format: in vivo, mice; conditions: day 10 post-treatment
Excerpt: (§6) For blood and tumor samples from mice, the following antibodies were purchased from Biolegend: anti-human CD45-APC (HI30), anti-human CD3-Percp/Cy5.5 (SK7), anti-human CD8-FITC, anti-human CD4-PE/Cy7, anti-mouse CD45-APC, anti-mouse CD45-Brilliant Violet 711™ (30-F11), anti-mouse CD11b-Brilliant Violet 570™ (M1/70), anti-mouse Ly6G-FITC, anti-mouse Ly6C-PerCP/Cy5.5, and anti-mouse F4/80-PE/Cy7. Statistical analysis
(§7) Flow cytometry analysis. For flow cytometry analyses of blood and tumor samples from mice, the following antibodies were purchased from Biolegend: anti-human CD45-APC (HI30), anti-human CD3-Percp/Cy5.5 (SK7), anti-human CD8-FITC, anti-human CD4-PE/Cy7, anti-mouse CD45-Brilliant Violet 711™ (30-F11), anti-mouse CD11b-Brilliant Violet 570™ (M1/70), anti-mouse Ly6G-FITC, anti-mouse Ly6C-PerCP/Cy5.5, and anti-mouse F4/80-PE.

[2] = system: osteosarcoma cell line 143B xenografts; assay: In vivo anti-tumor effect against osteosarcoma cell line 143B xenografts
Method: All animal procedures were performed in compliance with Memorial Sloan Kettering Cancer Center's institutional Animal Care and Use Committee (IACUC) guidelines. BALB/c Rag2^−/−IL-2Rγc^−/− (BRG) mice were used in this study. Target antigen (+) patient-derived xenograft (PDX) was established from fresh surgical specimens with MSKCC IRB approval. Tumor cells in Matrigel (Corning Corp, Corning, NY) were implanted subcutaneously on the right flank of each mouse. Tumor size was measured using handheld Peira TM900 imaging device (Piera, Brussels, BE). Tumor growth curves and overall survival was analyzed, and the overall survival was defined as the time from start of treatment to when tumor volume reached 2000 mm^3. To define the well-being of mice, CBC analyses, changes in body weight, behavior and physical appearance were monitored. All animal experiments were repeated twice more with different donor's T cells to ensure that the results were reliable.
In vivo anti-tumor effect was compared by area under curve (AUC) and survival curves, which were calculated. Differences between samples indicated in the figures were tested for statistical significance by two-tailed Student's t-test for two sets of data while one-way ANOVA with Tukey's post hoc test was used to among three or more sets of data. […]
Therapeutic study with mouse xenograft model All animal procedures were performed in compliance with Memorial Sloan Kettering Cancer Center's institutional Animal Care and Use Committee (IACUC) guidelines. […] Treatment was initiated after tumors were established, average tumor volume of 100 mm^3 when measured using TM900 scanner (Piera, Brussels, BE). […] Tumor growth curves and overall survival were analyzed, and the overall survival was defined as the time from start of treatment to when tumor volume reached 2000 mm^3. To define the well-being of mice, CBC analyses, changes in body weight, behavior and physical appearance were monitored. […]
Statistical analysis. […] Area under curves (AUCs) of tumor growth were calculated and compared among groups. […]

[3] = system: TH1 cell cytokines (IL-2, IFN-γ, and TNF-α); assay: TH1 cell cytokine levels after GD2-EATs with VEGF blockades, neuroblastoma PDX mice; format: in vivo; conditions: 2 hours after the first dose of GD2-EATs; combination group
Method: Cytokine release assays. EAT-induced human cytokine release was analyzed in vitro and in vivo. Human Th1 cell released cytokines were analyzed by LEGENDplex™ Human Th1 Panel (Biolegend, Cat #741035). Five T cell cytokines including IL-2, IL-6, IL-10, IFN-γ and TNF-α were analyzed using mouse serum after treatment with EATs with or without VEGF blockade.

[4] = system: red blood cell, leukocyte, or platelet counts; assay: Complete blood count after GD2-EATs with VEGF blockades, neuroblastoma PDX mice; format: in vivo; conditions: GD2-EATs following bevacizumab or DC101
Method: To test if VEGF blockades affected complete blood cell counts (CBC) or frequencies of tumor infiltrating myeloid cells (TIMs), CBC and flow cytometry analysis of tumors were done after the first and third doses of GD2-EATs following bevacizumab or DC101. […] The effect on TIMs was also analyzed using flow cytometry of tumors. […] TIM analysis in a second tumor model was repeated using 143B CDXs where blood and tumors were analyzed on day 5 and day 60 post treatment, respectively.

[5] = system: HER2(+) osteosarcoma PDXs, HGSOS; assay: Bioluminescence imaging of Luc(+) HER2-EATs in HER2(+) osteosarcoma PDX (HGSOS / HGSOC1); format: in vivo, mice; conditions: control HER2-EATs
Method: as §1, §2
as §5, with “Transduced T cells were cultured for 8 days before being used in animal experiments.” left out

[6] = system: osteosarcoma cell line 143B xenografts; format: in vivo, mice; conditions: agents added to GD2-EATs, vs GD2-EATs alone
Method: Immunohistochemistry (IHC) and immunofluorescence (IF) staining were performed at the MSK Molecular Cytology Core Facility using Discovery XT processor (Ventana Medical Systems, Oro Valley, AZ) as described by Xu H, et al., Cancer Immunol Res 3: 266-277 (2015), the entirety of which is incorporated herein by reference. Tumor samples were fixed and embedded in paraffin. Anti-human CD45, anti-human CD3, and anti-mouse CD68 antibodies were used, which was followed by biotinylated secondary antibody. The detection was performed using a DAB detection kit (Ventana Medical Systems, Oro Valley, AZ) or Alexa Fluor™ 488 or 568 Tyramide Reagent (Invitrogen, Carlsbad, CA). IHC images were captured from tumor sections using a Nikon ECLIPSE Ni-U microscope and NIS-Elements 4.0 imaging software. IF images were captured using Leica Inverted Confocal SP8 and processed with Imaris (Bitplane, Zurich, Switzerland). Antigen positive cells were counted with Qupath 0.1.2.
Immunohistochemistry and immunofluorescence staining. Immunohistochemistry (TIC) staining were performed at the MSK Molecular Cytology Core Facility using Discovery XT processor (Ventana Medical Systems). Tumor samples were fixed and embedded in paraffin. […] Antigen positive cells were counted with Qupath 0.1.2 or using positive pixel count analysis.

[7] = system: osteosarcoma cell line 143B xenografts; format: in vivo, mice; conditions: day 60 post-treatment, agents added to GD2-EATs, vs GD2-EATs alone
Excerpt: as §6, §7

tumor microvasculature = assay: IHC of intratumoral blood vessels (mCD31) and HIF-1α in neuroblastoma PDXs; format: in vivo, mice
Method: as §3
as §4, with “Each slide was visually inspected to ensure specificity and sensitivity of antibody staining.” left out

hVEGF = assay: Serum VEGF levels by Quantikine ELISA, HGSOC1 ovarian cancer PDX mice; format: in vivo, human; conditions: day 5 post-treatment, 48 hours after 2nd dose; with HER2-EATs
Method: Concentration of VEGF serum levels were measured using a commercially available enzyme-linked immunosorbent assay (ELISA) kit (R&D Systems, Minneapolis, MN) according to the manufacturer's instruction. Briefly, serum samples and standards were incubated for 2 hours in a microplate pre-coated with human or murine anti-VEGF monoclonal antibodies. After washing three times, enzyme-linked anti-VEGF polyclonal antibodies were added. Unbound antibodies were removed by washing. […] All samples were run in triplicate, and a standard curve was established for each assay. The sensitivity of the assay was <9.0 pg/ml. Inter- and intra-assay variations were <10%.
Measurement of serum VEGF levels. Serum VEGF levels in murine plasma were measured using Quantikine enzyme-linked immunosorbent assay (ELISA) kit (R and D Systems Cat #DVE00, RRID:AB_2800364) according to the manufacturer's instruction. […] All samples were run in triplicate, and a standard curve was established for each assay.

[8] = agent added to GD2-EATs, compared to GD2-EATs alone

## C[C@@H]1C[C@H]2[C@@H]3CCC4=CC(=O)C=C[C@]4(C)[C@@]3(F)[C@@H](O)C[C@]2(C)[C@@]1(O)C(=O)CO [dexamethasone]
M37 breast cancer PDX
  weight loss: suffered weight loss around day 30 post treatment
GD2(+) osteosarcoma PDX
  mean signal intensity on day 5 vs GD2-EATs alone: more than 10 times

## bevacizumab: anti-human VEGF (hVEGF) antibody bevacizumab
[1]
  CD4(+) TIL increase compared to GD2-EATs alone: 1.1 fold
  CD8(+) TIL increase compared to GD2-EATs alone: 5 fold
  increase of CD3(+) TILs compared to GD2-EATs alone: 3 fold
GD2(+) neuroblastoma PDX; added to GD2-EATs
  TIL persistence: significantly prolonging TIL persistence
GD2(+) neuroblastoma PDX; neuroblastoma PDX, control GD2-EATs
  Fold increase in BLI (AUC-BLI): 2.8
Neuroblastoma PDXs
  frequencies of intratumoral hCD45(+) T cells: much more pronounced
[2]; VEGF blockade with unarmed T cells
  anti-tumor effect: did not show any anti-tumor effect
[2]; [8]
  survival: prolonging mouse survival
  tumor control / anti-tumor response: significantly improved
[3]
  TH1 cell cytokines (IL-2, IFN-γ, and TNF-α): significantly lower
[4]
  red blood cell, leukocyte, or platelet counts: no significant changes
[5]
  Fold increase in BLI (AUC-BLI): 7.5
[6]
  CD3+ T cell infiltration / count in tumors (IHC): significantly increased
[6]; listed as anti-VEGF
  CD3+ T cell infiltration / count in tumors (IHC): significantly increased T cell count
[7]
  tumor infiltrating hCD45(+) and CD8(+) T cells (TILs): significantly increased
[7]; listed as anti-VEGF
  tumor infiltrating hCD45(+) and CD8(+) T cells (TILs): increased frequencies of tumor infiltrating hCD45(+) T cells and CD8(+) T cells
Tumor microvasculature; combined with GD2-EATs
  high endothelial venules (HEVs) in tumors: induced high endothelial venules (HEVs) in tumors
Tumor microvasculature; day 10 post-treatment
  mCD31(+) blood vessels: significant increase in mCD31(+) blood vessels
hVEGF
  serum h-VEGF levels: significantly reduced serum h-VEGF levels
